Experimental data from ChEMBL document CHEMBL1201862, “PubChem BioAssay data set” (2004).
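Dose response: 5 concentrations. Exposure: 48 h. Format: 96-well plates. Endpoint: linear interpolation; highest concentration if not reached. The concentration for 50% growth inhibition is given as GI50.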 Active and inactive are the calls of the source. No stated cut-off is given here; in the data, active = GI50 up to about 1.1 µM and inactive = higher.

How the values were obtained:
Experiment in all cases: inhibition of tumour cell growth, NCI panel, 48 h
786-0 = test system: 786-0
EKVX = test system: EKVX
HOP-62 = test system: HOP-62
HT-29 = test system: HT-29
K562 = test system: K562
OVCAR-3 = test system: OVCAR-3
OVCAR-4 = test system: OVCAR-4
OVCAR-5 = test system: OVCAR-5
SF-295 = test system: SF-295
SF-539 = test system: SF-539
SK-MEL-5 = test system: SK-MEL-5
SNB-19 = test system: SNB-19
SNB-75 = test system: SNB-75
SR = test system: SR
UACC-257 = test system: UACC-257
NCI-H226 = test system: NCI-H226
RXF 393 = test system: RXF 393
SK-MEL-2 = test system: SK-MEL-2

Measured: GI50

CC1(C)C=C(N2CCN(C3=CC(C)(C)NC(C)(C)C3)CC2)CC(C)(C)N1
inactive: 786-0 > 100 µM | EKVX > 100 µM | HOP-62 > 100 µM | HT-29 > 100 µM | K562 > 100 µM | OVCAR-3 > 100 µM | OVCAR-4 > 100 µM | OVCAR-5 > 100 µM | SF-295 > 100 µM | SF-539 > 100 µM | SK-MEL-5 > 100 µM | SNB-19 > 100 µM | SNB-75 > 100 µM | SR > 100 µM | UACC-257 > 100 µM

COc1ccc2c(c1)[n+]([O-])c(C(=O)CC(=O)C(=O)Nc1cccc(C)c1C)c(C)[n+]2[O-]
inactive: 786-0 > 100 µM | EKVX > 100 µM | HOP-62 > 100 µM | HT-29 > 100 µM | K562 > 100 µM | NCI-H226 > 100 µM | OVCAR-3 > 100 µM | OVCAR-4 > 100 µM | OVCAR-5 > 100 µM | RXF 393 > 100 µM | SF-295 > 100 µM | SF-539 > 100 µM | SK-MEL-2 > 100 µM | SK-MEL-5 > 100 µM | SNB-19 > 100 µM | SR > 100 µM | UACC-257 > 100 µM

CCOC(=O)COc1ccccc1/C=C1\CCC(CN(C)C)C1=O (stereo not given)
inactive: 786-0 2.94 µM | EKVX 13.8 µM | HOP-62 20.6 µM | HT-29 5.86 µM | K562 1.49 µM | NCI-H226 17.5 µM | OVCAR-3 7.82 µM | OVCAR-4 16.5 µM | OVCAR-5 17.9 µM | RXF 393 2.93 µM | SF-295 16.1 µM | SF-539 11.9 µM | SK-MEL-2 10.6 µM | SK-MEL-5 10.4 µM | SNB-19 9.2 µM | SNB-75 15.9 µM | UACC-257 5.66 µM

Cc1ccc(N2C(=O)/C(=C3\Sc4c(nc(C)n(C)c4=O)N3c3ccccc3)SC2=S)cc1
inactive: 786-0 36.9 µM | EKVX > 100 µM | HT-29 > 100 µM | K562 > 100 µM | NCI-H226 26 µM | OVCAR-4 76.9 µM | OVCAR-5 > 100 µM | RXF 393 18.7 µM | SF-295 52.7 µM | SF-539 15.3 µM | SK-MEL-2 > 100 µM | SK-MEL-5 83.8 µM | SNB-19 49.4 µM | SNB-75 28.6 µM | SR > 100 µM | UACC-257 > 100 µM

CC1COC(C)(C)P(=O)(c2ccccc2)C1 (stereo not given)
inactive: 786-0 > 100 µM | EKVX > 100 µM | HOP-62 > 100 µM | HT-29 > 100 µM | K562 > 100 µM | NCI-H226 > 100 µM | OVCAR-3 > 100 µM | OVCAR-5 > 100 µM | RXF 393 > 100 µM | SF-295 > 100 µM | SF-539 > 100 µM | SK-MEL-2 > 100 µM | SK-MEL-5 > 100 µM | SNB-19 > 100 µM | SNB-75 49.4 µM | SR > 100 µM | UACC-257 > 100 µM

CCOC(=O)/C(=C\c1ccc(OCc2ccccc2)c(OC)c1)C(=O)c1ccccc1
inactive: 786-0 20 µM | EKVX 27.4 µM | HOP-62 18.9 µM | K562 19.9 µM | NCI-H226 25.7 µM | OVCAR-3 22 µM | OVCAR-4 36 µM | OVCAR-5 20.7 µM | SF-295 22.3 µM | SF-539 16.7 µM | SK-MEL-2 19.6 µM | SK-MEL-5 17.9 µM | SNB-19 27.7 µM | SR 33 µM | UACC-257 > 10 µM

O=C1OC(Cc2ccccc2)(N2CCCC2=O)C1c1ccccc1 (stereo not given)
inactive: 786-0 > 100 µM | EKVX 48.6 µM | HOP-62 > 100 µM | HT-29 > 100 µM | K562 63.8 µM | NCI-H226 > 100 µM | OVCAR-3 > 100 µM | OVCAR-4 > 100 µM | OVCAR-5 > 100 µM | SF-295 > 100 µM | SK-MEL-2 > 100 µM | SK-MEL-5 51.5 µM | SNB-19 47.2 µM | SNB-75 30.8 µM | SR 56.4 µM | UACC-257 > 100 µM

Cc1ccc(S(=O)OC23CC4CC(CC(C4)C2)C3)cc1 (stereo not given)
inactive: 786-0 > 100 µM | EKVX > 100 µM | HOP-62 > 100 µM | HT-29 > 100 µM | K562 > 100 µM | NCI-H226 > 100 µM | OVCAR-3 > 100 µM | OVCAR-4 > 100 µM | OVCAR-5 > 100 µM | RXF 393 70.1 µM | SF-295 > 100 µM | SF-539 > 100 µM | SK-MEL-5 > 100 µM | SNB-19 > 100 µM | SNB-75 69.5 µM | SR 35.7 µM | UACC-257 > 100 µM

Nc1ccc(C(=O)NN2C(=O)C(Cl)C2c2ccc(O)cc2)cc1 (stereo not given)
inactive: 786-0 17.5 µM | EKVX 16.6 µM | HOP-62 21.7 µM | HT-29 24.7 µM | K562 21.3 µM | NCI-H226 25.4 µM | OVCAR-3 15 µM | OVCAR-4 19.1 µM | OVCAR-5 21.7 µM | SF-295 33 µM | SF-539 19.1 µM | SK-MEL-2 15.3 µM | SK-MEL-5 17.2 µM | SNB-19 16 µM | SNB-75 26.5 µM | UACC-257 36.1 µM

COc1ccc(CCNCc2cccc(OC)c2OC)cc1OC
inactive: 786-0 > 100 µM | EKVX > 100 µM | HOP-62 > 100 µM | HT-29 88.7 µM | K562 > 100 µM | OVCAR-3 > 100 µM | OVCAR-4 > 100 µM | OVCAR-5 > 100 µM | RXF 393 > 100 µM | SF-295 > 100 µM | SK-MEL-2 > 100 µM | SK-MEL-5 > 100 µM | SNB-19 > 100 µM | SNB-75 > 100 µM | UACC-257 > 100 µM

COC(=O)C1=C(c2cc(OC)c(OC)c(OC)c2)OC(c2cc(OC)c(OC)c(OC)c2)C1 (stereo not given)
inactive: 786-0 24.8 µM | HOP-62 37.8 µM | HT-29 24.3 µM | K562 28.8 µM | NCI-H226 17.1 µM | OVCAR-3 22.1 µM | OVCAR-4 12 µM | OVCAR-5 33.3 µM | RXF 393 33.9 µM | SF-295 20.5 µM | SF-539 34.4 µM | SK-MEL-5 16 µM | SNB-19 19.5 µM | SNB-75 23.7 µM | SR 18 µM | UACC-257 23.9 µM

CC(=O)N1CCN(c2ccc(OCC3COC(Cn4ccnc4)(c4ccc(Cl)cc4Cl)O3)cc2)CC1 (stereo not given) [KETOCONAZOLE]
inactive: 786-0 36 µM | HOP-62 39.4 µM | HT-29 18.9 µM | K562 28.7 µM | NCI-H226 18.7 µM | OVCAR-3 28.1 µM | OVCAR-4 39.1 µM | OVCAR-5 30.3 µM | RXF 393 22.2 µM | SK-MEL-2 17.4 µM | SK-MEL-5 12.2 µM | SR 20.2 µM | UACC-257 20.7 µM
